Assay results published in patent publication EP4678638A1, “NEW E3 UBIQUITIN LIGASE LIGAND, PROTEIN DEGRADATION AGENT AND USE THEREOF” (priority 2023, dated 2024).
Where two headings read alike, the source gives them in different places.

Legend:
Type in all cases: cell-based
MM.1S = assay: CCK-8 proliferation, MM.1S; conditions: Homo sapiens, MM1.S, read-out: Inhibitory activity (IC50) on tumor cell proliferation, MM1S
In short: (§1)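 CCK-8 viability readout; IC50 from growth-inhibition curve fitting. Cells plated, dosed 24h later with a 10-point series, top 10µM, 5-fold steps. Culture at 37°C, 5% CO2.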

WEE1 = molecular target: T1, WEE1 (Homo sapiens, UniProt P30291+Q96SW2); assay: Western blot degradation of WEE1 (hPBMC); conditions: Table D16
T1 construct: evaluate the effects of the compounds of the present disclosure on the expression of target proteins in cells; endogenous in cells; host or cells: hPBMC
In short: (§2)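 Degradation is assessed by immunoblotting lysates of treated cells. Target bands are quantified by grayscale and normalised to an internal control, so degradation rate equals 100% minus % remaining.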

IKZF1 = molecular target: T2, IKZF1 (Homo sapiens, UniProt Q13422+Q96SW2); assay: Western blot degradation of IKZF1 (hPBMC); conditions: Table D16
T2 construct: evaluate the effects of the compounds of the present disclosure on the expression of target proteins in cells; endogenous in cells; host or cells: hPBMC
T2 sequence (Q13422 whole entry): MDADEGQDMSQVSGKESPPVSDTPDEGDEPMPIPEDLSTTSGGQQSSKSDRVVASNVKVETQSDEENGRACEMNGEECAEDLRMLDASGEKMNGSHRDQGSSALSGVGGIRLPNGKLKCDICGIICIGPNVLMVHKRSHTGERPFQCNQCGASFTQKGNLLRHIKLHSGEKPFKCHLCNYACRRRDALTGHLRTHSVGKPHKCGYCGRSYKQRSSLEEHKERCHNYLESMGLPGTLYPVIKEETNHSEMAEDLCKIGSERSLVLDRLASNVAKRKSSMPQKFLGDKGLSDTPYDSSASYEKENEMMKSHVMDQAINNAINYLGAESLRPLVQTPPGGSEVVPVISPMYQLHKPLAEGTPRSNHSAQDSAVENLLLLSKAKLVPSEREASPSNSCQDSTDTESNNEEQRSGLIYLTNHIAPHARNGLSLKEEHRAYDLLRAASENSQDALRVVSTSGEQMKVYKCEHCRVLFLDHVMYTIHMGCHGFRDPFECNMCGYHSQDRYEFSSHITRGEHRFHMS
T2 sequence (Q96SW2 whole entry): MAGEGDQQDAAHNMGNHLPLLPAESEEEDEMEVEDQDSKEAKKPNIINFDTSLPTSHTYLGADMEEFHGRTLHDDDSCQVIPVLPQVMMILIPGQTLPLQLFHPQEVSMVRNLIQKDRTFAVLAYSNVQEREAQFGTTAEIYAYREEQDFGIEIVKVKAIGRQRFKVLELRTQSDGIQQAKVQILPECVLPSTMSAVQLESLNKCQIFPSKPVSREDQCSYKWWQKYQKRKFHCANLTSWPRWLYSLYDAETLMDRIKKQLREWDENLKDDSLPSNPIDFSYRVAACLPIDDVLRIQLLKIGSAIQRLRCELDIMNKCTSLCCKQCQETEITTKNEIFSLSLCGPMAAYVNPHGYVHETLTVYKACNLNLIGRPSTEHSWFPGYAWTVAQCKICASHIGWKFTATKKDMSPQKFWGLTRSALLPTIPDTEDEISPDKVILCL
T2 sequence (Q16531 whole entry partner): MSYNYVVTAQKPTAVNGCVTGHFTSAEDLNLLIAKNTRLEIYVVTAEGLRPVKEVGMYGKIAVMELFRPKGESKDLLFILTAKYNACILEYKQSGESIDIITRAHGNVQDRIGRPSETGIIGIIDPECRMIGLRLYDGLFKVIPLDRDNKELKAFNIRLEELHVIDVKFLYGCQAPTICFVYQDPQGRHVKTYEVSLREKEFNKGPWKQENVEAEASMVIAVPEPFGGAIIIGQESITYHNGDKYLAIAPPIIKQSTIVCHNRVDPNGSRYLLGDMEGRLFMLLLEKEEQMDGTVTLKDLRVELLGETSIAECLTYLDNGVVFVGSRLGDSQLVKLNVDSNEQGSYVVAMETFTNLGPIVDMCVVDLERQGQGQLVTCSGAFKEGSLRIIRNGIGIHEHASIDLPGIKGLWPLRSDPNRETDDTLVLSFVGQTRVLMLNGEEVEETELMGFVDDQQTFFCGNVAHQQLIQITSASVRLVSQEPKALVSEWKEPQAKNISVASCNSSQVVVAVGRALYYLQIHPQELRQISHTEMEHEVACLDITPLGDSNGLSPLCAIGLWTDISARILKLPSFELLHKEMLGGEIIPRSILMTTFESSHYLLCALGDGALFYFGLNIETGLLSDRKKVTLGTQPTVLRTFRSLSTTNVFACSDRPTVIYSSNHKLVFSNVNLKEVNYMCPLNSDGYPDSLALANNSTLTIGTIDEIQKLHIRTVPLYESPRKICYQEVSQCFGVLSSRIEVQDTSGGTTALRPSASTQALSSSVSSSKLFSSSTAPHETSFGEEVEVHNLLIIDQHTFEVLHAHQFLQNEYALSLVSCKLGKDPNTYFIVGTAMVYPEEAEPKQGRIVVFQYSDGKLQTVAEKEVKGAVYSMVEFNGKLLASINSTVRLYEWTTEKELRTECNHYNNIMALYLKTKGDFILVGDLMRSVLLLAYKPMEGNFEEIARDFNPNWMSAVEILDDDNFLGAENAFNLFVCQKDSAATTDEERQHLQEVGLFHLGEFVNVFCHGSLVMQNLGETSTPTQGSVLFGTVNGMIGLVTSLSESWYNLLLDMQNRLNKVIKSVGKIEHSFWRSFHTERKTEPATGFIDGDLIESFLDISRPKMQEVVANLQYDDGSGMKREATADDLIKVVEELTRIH
In short: as §2

IKZF2 = molecular target: T3, IKZF2 (Homo sapiens, UniProt Q96SW2+Q9UKS7); assay: Western blot degradation of IKZF2 (hPBMC); conditions: Table D16
T3 construct: evaluate the effects of the compounds of the present disclosure on the expression of target proteins in cells; endogenous in cells; host or cells: hPBMC
T3 sequence (Q9UKS7 whole entry): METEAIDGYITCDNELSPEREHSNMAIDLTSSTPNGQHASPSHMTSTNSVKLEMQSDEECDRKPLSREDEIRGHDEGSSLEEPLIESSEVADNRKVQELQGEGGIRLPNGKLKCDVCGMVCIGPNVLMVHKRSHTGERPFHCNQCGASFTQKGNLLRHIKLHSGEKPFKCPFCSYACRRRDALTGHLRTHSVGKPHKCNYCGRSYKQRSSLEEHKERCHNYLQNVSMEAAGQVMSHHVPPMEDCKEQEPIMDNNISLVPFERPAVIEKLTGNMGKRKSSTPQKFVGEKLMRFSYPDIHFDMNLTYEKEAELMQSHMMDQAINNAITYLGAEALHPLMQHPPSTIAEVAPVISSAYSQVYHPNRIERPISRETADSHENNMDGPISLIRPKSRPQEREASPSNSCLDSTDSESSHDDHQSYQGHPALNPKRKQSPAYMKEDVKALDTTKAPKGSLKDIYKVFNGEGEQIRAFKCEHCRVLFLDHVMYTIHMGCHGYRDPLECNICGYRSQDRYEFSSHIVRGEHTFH
T3 sequence (Q96SW2 whole entry): as the sequence (Q96SW2 whole entry) above
T3 sequence (Q16531 whole entry partner): as the sequence (Q16531 whole entry partner) above
In short: as §2

IKZF3 = molecular target: T4, IKZF3 (Homo sapiens, UniProt Q96SW2+Q9UKT9); assay: Western blot degradation of IKZF3 (hPBMC); conditions: Table D16
T4 construct: evaluate the effects of the compounds of the present disclosure on the expression of target proteins in cells; endogenous in cells; host or cells: hPBMC
T4 sequence (Q9UKT9 whole entry): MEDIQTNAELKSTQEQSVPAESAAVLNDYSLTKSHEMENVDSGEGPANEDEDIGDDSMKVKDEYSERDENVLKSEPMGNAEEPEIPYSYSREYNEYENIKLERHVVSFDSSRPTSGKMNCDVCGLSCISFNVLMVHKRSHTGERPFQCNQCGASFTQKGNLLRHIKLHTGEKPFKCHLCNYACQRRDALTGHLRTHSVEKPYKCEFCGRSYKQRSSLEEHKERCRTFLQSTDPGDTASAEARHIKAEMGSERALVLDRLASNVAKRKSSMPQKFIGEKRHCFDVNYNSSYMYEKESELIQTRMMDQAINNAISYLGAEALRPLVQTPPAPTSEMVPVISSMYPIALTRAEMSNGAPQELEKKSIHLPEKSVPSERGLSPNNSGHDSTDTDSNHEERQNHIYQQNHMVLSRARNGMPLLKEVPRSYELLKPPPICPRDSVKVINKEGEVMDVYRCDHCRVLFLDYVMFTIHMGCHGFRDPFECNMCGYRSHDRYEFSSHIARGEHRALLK
T4 sequence (Q96SW2 whole entry): as the sequence (Q96SW2 whole entry) above
T4 sequence (Q16531 whole entry partner): as the sequence (Q16531 whole entry partner) above
In short: as §2

CK1a = molecular target: T5, CK1a (Homo sapiens, UniProt P48729+Q96SW2); assay: Western blot degradation of CK1a (hPBMC); conditions: Table D16
T5 construct: evaluate the effects of the compounds of the present disclosure on the expression of target proteins in cells; endogenous in cells; host or cells: hPBMC
T5 sequence (P48729 whole entry): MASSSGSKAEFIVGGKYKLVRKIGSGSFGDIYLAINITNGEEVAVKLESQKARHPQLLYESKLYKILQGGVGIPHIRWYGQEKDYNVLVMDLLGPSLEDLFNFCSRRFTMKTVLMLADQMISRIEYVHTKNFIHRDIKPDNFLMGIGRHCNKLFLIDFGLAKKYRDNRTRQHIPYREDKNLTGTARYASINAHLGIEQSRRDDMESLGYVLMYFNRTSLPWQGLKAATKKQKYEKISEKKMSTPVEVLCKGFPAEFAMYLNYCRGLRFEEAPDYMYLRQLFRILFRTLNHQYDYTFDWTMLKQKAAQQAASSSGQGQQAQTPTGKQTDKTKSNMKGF
T5 sequence (Q96SW2 whole entry): as the sequence (Q96SW2 whole entry) above
T5 sequence (Q16531 whole entry partner): as the sequence (Q16531 whole entry partner) above
In short: as §2

GSPT1 = molecular target: T6, GSPT1 (Homo sapiens, UniProt P15170+Q96SW2); assay: Western blot degradation of GSPT1 (hPBMC); conditions: Table D16
T6 construct: evaluate the effects of the compounds of the present disclosure on the expression of target proteins in cells; endogenous in cells; host or cells: hPBMC
T6 sequence (P15170 whole entry): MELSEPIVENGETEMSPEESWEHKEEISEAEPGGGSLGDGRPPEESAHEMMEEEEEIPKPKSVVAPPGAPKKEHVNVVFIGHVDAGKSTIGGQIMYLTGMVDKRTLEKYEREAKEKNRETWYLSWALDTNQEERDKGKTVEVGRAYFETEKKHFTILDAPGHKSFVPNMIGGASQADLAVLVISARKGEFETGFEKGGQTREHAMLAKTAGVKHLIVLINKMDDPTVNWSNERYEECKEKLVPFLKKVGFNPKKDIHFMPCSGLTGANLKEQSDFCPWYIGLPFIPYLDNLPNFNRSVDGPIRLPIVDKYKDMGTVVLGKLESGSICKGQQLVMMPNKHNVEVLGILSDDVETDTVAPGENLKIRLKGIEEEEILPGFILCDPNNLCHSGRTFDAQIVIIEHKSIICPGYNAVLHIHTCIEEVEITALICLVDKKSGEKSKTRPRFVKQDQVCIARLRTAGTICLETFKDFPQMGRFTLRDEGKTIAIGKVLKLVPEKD
T6 sequence (Q96SW2 whole entry): as the sequence (Q96SW2 whole entry) above
T6 sequence (Q16531 whole entry partner): as the sequence (Q16531 whole entry partner) above
In short: as §2

MCF7 = assay: CCK-8 proliferation, MCF7 (MCF-7); conditions: Homo sapiens
In short: as §1

[1] = MCF7, CCK-8, read-out: Inhibitory activity (IC50) on tumor cell proliferation, MCF-7

| SMILES | IC50 (MM.1S; CCK-8, 72 hours) [µM] | Degradation of substrate protein WEE1 (substrate protein remaining %) (WEE1) | Degradation of substrate protein IKZF1 (substrate protein remaining %) (IKZF1) | Degradation of substrate protein IKZF2 (substrate protein remaining %) (IKZF2) | Degradation of substrate protein IKZF3 (substrate protein remaining %) (IKZF3) | Degradation of substrate protein CKla (substrate protein remaining %) (CK1a) | Degradation of substrate protein GSPT1 (substrate protein remaining %) (GSPT1) | IC50 (MM.1S; 72 h) [µM] | IC50 (MCF7; [1]) [µM] | IC50 (MCF7; MCF7, read-out: Inhibitory activity (IC50) on tumor cell proliferation, MCF-7) [µM] |
| --- | --- | --- | --- | --- | --- | --- | --- | --- | --- | --- |
| NCc1ccnc(N2CCC(=O)NC2=O)c1 [GT-07198, 1-(4-(Aminomethyl)pyridin-2-yl)dihydropyrimidine-2,4(1H,3H)-dione] | 1 to 5 | B (B is defined as substrate protein remaining % > 80%) | B (B is defined as substrate protein remaining % > 80%) | B (B is defined as substrate protein remaining % > 80%) | A (A is defined as 0% ≤ substrate protein remaining % ≤ 80%) | B (B is defined as substrate protein remaining % > 80%) | B (B is defined as substrate protein remaining % > 80%) |  |  |  |
| O=Cc1cnc(NC2CCC(=O)NC2=O)nc1 (stereo not shown) [GT-07367, 2-((2,6-Dioxopiperidin-3-yl)amino)pyrimidine-5-carbaldehyde] | 1 to 5 | B (B is defined as substrate protein remaining % > 80%) | B (B is defined as substrate protein remaining % > 80%) | B (B is defined as substrate protein remaining % > 80%) | B (B is defined as substrate protein remaining % > 80%) | A (A is defined as 0% ≤ substrate protein remaining % ≤ 80%) | A (A is defined as 0% ≤ substrate protein remaining % ≤ 80%) |  |  |  |
| NCc1cc(N2CCC(=O)NC2=O)ncc1F [GT-07369, 1-(4-(Aminomethyl)-5-fluoropyridin-2-yl)dihydropyrimidine-2,4(1H,3H)-dione] | 1 to 5 | B (B is defined as substrate protein remaining % > 80%) | B (B is defined as substrate protein remaining % > 80%) | B (B is defined as substrate protein remaining % > 80%) | B (B is defined as substrate protein remaining % > 80%) | A (A is defined as 0% ≤ substrate protein remaining % ≤ 80%) | A (A is defined as 0% ≤ substrate protein remaining % ≤ 80%) |  |  |  |
| CC(C)(C)[Si](C)(C)OCc1ccc(NC2CCC(=O)NC2=O)cn1 (stereo not shown) [GT-07445, 3-((6-(((tert-Butyldimethylsilyl)oxy)methyl)pyridin-3-yl)amino)piperidine-2,6-dione] |  | A (A is defined as 0% ≤ substrate protein remaining % ≤ 80%) | A (A is defined as 0% ≤ substrate protein remaining % ≤ 80%) | B (B is defined as substrate protein remaining % > 80%) | B (B is defined as substrate protein remaining % > 80%) | A (A is defined as 0% ≤ substrate protein remaining % ≤ 80%) | A (A is defined as 0% ≤ substrate protein remaining % ≤ 80%) | 0.5 to 1 |  |  |
| O=C1CCC(Nc2cncc(CO)c2)C(=O)N1 (stereo not shown) [GT-07448, 3-((5-(Hydroxymethyl)pyridin-3-yl)amino)piperidine-2,6-dione] | 1 to 5 | A (A is defined as 0% ≤ substrate protein remaining % ≤ 80%) | A (A is defined as 0% ≤ substrate protein remaining % ≤ 80%) | A (A is defined as 0% ≤ substrate protein remaining % ≤ 80%) | A (A is defined as 0% ≤ substrate protein remaining % ≤ 80%) | A (A is defined as 0% ≤ substrate protein remaining % ≤ 80%) | A (A is defined as 0% ≤ substrate protein remaining % ≤ 80%) |  |  |  |
| O=Cc1cncc(NC2CCC(=O)NC2=O)c1 (stereo not shown) [GT-07554, 5-((2,6-Dioxopiperidin-3-yl)amino)nicotinaldehyde] |  | A (A is defined as 0% ≤ substrate protein remaining % ≤ 80%) | A (A is defined as 0% ≤ substrate protein remaining % ≤ 80%) | A (A is defined as 0% ≤ substrate protein remaining % ≤ 80%) | A (A is defined as 0% ≤ substrate protein remaining % ≤ 80%) | A (A is defined as 0% ≤ substrate protein remaining % ≤ 80%) | B (B is defined as substrate protein remaining % > 80%) |  | 1 to 5 |  |
| O=C1CCN(c2cnc(CO)c(F)c2)C(=O)N1 [GT-07555, 1-(5-Fluoro-6-(hydroxymethyl)pyridin-3-yl)dihydropyrimidine-2,4(1H,3H)-dione] |  | A (A is defined as 0% ≤ substrate protein remaining % ≤ 80%) | A (A is defined as 0% ≤ substrate protein remaining % ≤ 80%) | A (A is defined as 0% ≤ substrate protein remaining % ≤ 80%) | A (A is defined as 0% ≤ substrate protein remaining % ≤ 80%) | A (A is defined as 0% ≤ substrate protein remaining % ≤ 80%) | A (A is defined as 0% ≤ substrate protein remaining % ≤ 80%) |  | 1 to 5 |  |
| O=C1CCC(Nc2cc(CO)c(F)cn2)C(=O)N1 (stereo not shown) [GT-07725, 3-((5-fluoro-4-(hydroxymethyl)pyridin-2-yl)amino)piperidine-2,6-dione] |  | A (A is defined as 0% ≤ substrate protein remaining % ≤ 80%) | A (A is defined as 0% ≤ substrate protein remaining % ≤ 80%) | A (A is defined as 0% ≤ substrate protein remaining % ≤ 80%) | A (A is defined as 0% ≤ substrate protein remaining % ≤ 80%) | B (B is defined as substrate protein remaining % > 80%) | A (A is defined as 0% ≤ substrate protein remaining % ≤ 80%) |  | 1 to 5 |  |
| CC(C)(C)[Si](C)(C)OCc1ccc(NC2CCC(=O)NC2=O)nn1 (stereo not shown) [GT-07726, 3-((6-(((tert-Butyldimethylsilyl)oxy)methyl)pyridazin-3-yl)amino)piperidine-2,6-dione] |  | A (A is defined as 0% ≤ substrate protein remaining % ≤ 80%) | A (A is defined as 0% ≤ substrate protein remaining % ≤ 80%) | A (A is defined as 0% ≤ substrate protein remaining % ≤ 80%) | A (A is defined as 0% ≤ substrate protein remaining % ≤ 80%) | B (B is defined as substrate protein remaining % > 80%) | B (B is defined as substrate protein remaining % > 80%) |  |  | 1 to 5 |
| O=C1CCC(Nc2ncncc2CO)C(=O)N1 (stereo not shown) [GT-07727, 3-((5-(Hydroxymethyl)pyrimidin-4-yl)amino)piperidine-2,6-dione] |  | A (A is defined as 0% ≤ substrate protein remaining % ≤ 80%) | A (A is defined as 0% ≤ substrate protein remaining % ≤ 80%) | A (A is defined as 0% ≤ substrate protein remaining % ≤ 80%) | A (A is defined as 0% ≤ substrate protein remaining % ≤ 80%) | B (B is defined as substrate protein remaining % > 80%) | B (B is defined as substrate protein remaining % > 80%) |  | 1 to 5 |  |
